Data published in patent US11684614B2, “Formulations of hydroxypyridonate actinide/lanthanide decorporation agents” (priority 2017, dated 2023).

Assay: 3,4,3-LI(1,2-HOPO)-excipient compatibility study (visual observation, HPLC purity and impurities on storage)
Format: physicochemical
Conditions: for 3L1O Purity / Total Impurities: n = 1
Method: The objective of the analytical study described in this report was to evaluate the interactions between 3,4,3-L1(1,2-HOPO) and selected pharmaceutical excipients under 25° C./60% RH and 40° C./75% RH conditions over eight weeks. Physical appearance and potency of the different samples were assessed at T=0, 2, 4, and 8 weeks through visual observations and high performance liquid chromatography (HPLC) analysis.
The stability of 3,4,3-L1(1,2-HOPO) was tested according to the conditions listed below in TABLE 1.1. A11 test samples were stored throughout the study in 40 mL clear USP Type 1 glass vials (28 mm OD×95 mm height; 24 mm screw cap), wrapped in aluminum foil.
• Test Samples: Each test mixture was prepared by weighing the desired quantity of 3,4,3-L1(1,2-HOPO) and excipient (both screened through sieve #40) into vials. Both ingredients were first mixed using a clean glass rod and then vortexed. At each time interval, one vial was withdrawn from each drug-excipient series along with the corresponding placebo preparation and tested as described below.
b. Sample Characterization • Visual Observation: For each sample solution, visual observation consisted in recording color and physical form.
c. Chromatographic Assay and Purity Assessment • Standard Stock Solutions: For each standard stock solutions, the test article was weighed (200 mg) and dissolved by sonication into 30 mL of diluent (water:acetonitrile=90%:10%). After equilibration at room temperature, the volume of the standard solution was adjusted to 50 mL. Standard stock solutions were prepared in duplicates, working standard solutions were prepared by dilution of each stock with the diluent to the desired concentrations. • Calibration Standards: With each experiment, 5 calibration standard solutions at different concentrations were prepared from stock solutions using the diluent. Concentrations of the calibration standards were between 1.6 and 2.4 mg/mL. […] The vials were then mechanically shaken for 15 minutes, followed by centrifugation of the sample solutions (10,000 rpm, 10 min), and the supernatants were used for the assay. • Placebo Preparation: 25 mL of diluent was added to each of the placebo vial. The vials were then mechanically shaken for 15 minutes, followed by centrifugation of the sample solutions (10,000 rpm, 10 min), and the supernatants were used for the assay. Analytical Method: Instrument: Waters Alliance 2695 liquid chromatography system Column: Agilent, Eclipse XDB-C18, 4.6×150 mm, 5 μm. Mobile Phase A: 0.05% formic acid in 95% H2O: 5% ACN Mobile Phase B: 0.05% formic acid in acetonitrile (ACN)
Column Temperature: 25° C. Flow Rate: 1.0 mL/min. Injection Volume: 10 μL Detection: 250 nm Run Time: 50 min Diluent: 9:1 H2O:ACN Analysis Sequence:
• Suitability Requirements: There should be no interference from the diluent/blank at the retention times of 3,4,3-L1(1,2-HOPO) peaks. The relative standard deviation (% RSD) for five replicate system suitability injections should be below 2.0%. The response factor of the second standard should be within 95-105%. The correlation coefficient (R2) of the system linearity standards should be higher than 0.990. 5. Results

Q: For O=C(NCCCN(CCCCN(CCCNC(=O)c1cccc(=O)n1O)C(=O)c1cccc(=O)n1O)C(=O)c1cccc(=O)n1O)c1cccc(=O)n1O [3,4,3-L1(1,2-HOPO)], which “Stability of 3,4,3-L1(1,2-HOPO)” value (25° C./60% RH and 40° C./75% RH, over 8 weeks) is on record?
A: stable over 8 weeks

Q: And the “Unknown Impurity RRT 0.24” value (25° C./60% RH, 2 Weeks)?
A: 0.03 % w/w

Q: What about the “Unknown Impurity RRT 0.58” value (25° C./60% RH, 2 Weeks) of the same compound?
A: 0.05 % w/w

Q: And the “Unknown Impurity RRT 0.59” value (25° C./60% RH, 2 Weeks)?
A: 0.05 % w/w

Q: And the “Unknown Impurity RRT 0.62” value (25° C./60% RH, 2 Weeks)?
A: 0.05 % w/w

Q: And the “Unknown Impurity RRT 0.87” value (25° C./60% RH, 2 Weeks)?
A: 0.12 % w/w

Q: What about the “Unknown Impurity RRT 0.89” value (25° C./60% RH, 2 Weeks) of the same compound?
A: 0.03 % w/w

Q: What about the “Unknown Impurity RRT 1.02” value (25° C./60% RH, 2 Weeks) of the same compound?
A: 0.08 % w/w

Q: And the “Unknown Impurity RRT 1.11” value (25° C./60% RH, 2 Weeks)?
A: 0.05 % w/w

Q: And the “Unknown Impurity RRT 1.27” value (25° C./60% RH, 2 Weeks)?
A: 0.36 % w/w

Q: And the “Unknown Impurity RRT 1.3” value (25° C./60% RH, 2 Weeks)?
A: 0.22 % w/w

Q: What about the “Unknown Impurity RRT 1.39” value (25° C./60% RH, 2 Weeks) of the same compound?
A: 0.07 % w/w

Q: What about the “Unknown Impurity RRT 1.41” value (25° C./60% RH, 2 Weeks) of the same compound?
A: 0.03 % w/w

Q: What about the “Unknown Impurity RRT 1.46” value (25° C./60% RH, 2 Weeks) of the same compound?
A: 0.08 % w/w

Q: What about the “Unknown Impurity RRT 2.31” value (25° C./60% RH, 2 Weeks) of the same compound?
A: 0.05 % w/w

Q: What about the “Unknown Impurity RRT 2.6” value (25° C./60% RH, 2 Weeks) of the same compound?
A: 0.04 % w/w

Q: What about the “Unknown Impurity RRT 2.8” value (25° C./60% RH, 2 Weeks) of the same compound?
A: 0.03 % w/w

Q: What about the “3L1O Purity” value (25° C./60% RH, 2 Weeks) of the same compound?
A: 98.67 % Area

Q: And the “Total Impurities” value (25° C./60% RH, 2 Weeks)?
A: 1.33 % Area

Q: And the “Unknown Impurity RRT 0.24” value (25° C./60% RH, 4 weeks)?
A: 0.03 % w/w

Q: What about the “Unknown Impurity RRT 0.58” value (25° C./60% RH, 4 weeks) of the same compound?
A: 0.07 % w/w

Q: And the “Unknown Impurity RRT 0.6” value (25° C./60% RH, 4 weeks)?
A: 0.05 % w/w

Q: And the “Unknown Impurity RRT 0.62” value (25° C./60% RH, 4 weeks)?
A: 0.05 % w/w

Q: What about the “Unknown Impurity RRT 0.87” value (25° C./60% RH, 4 weeks) of the same compound?
A: 0.14 % w/w

Q: What about the “Unknown Impurity RRT 0.89” value (25° C./60% RH, 4 weeks) of the same compound?
A: 0.02 % w/w

Q: What about the “Unknown Impurity RRT 1.03” value (25° C./60% RH, 4 weeks) of the same compound?
A: 0.04 % w/w

Q: And the “Unknown Impurity RRT 1.11” value (25° C./60% RH, 4 weeks)?
A: 0.05 % w/w

Q: What about the “Unknown Impurity RRT 1.27” value (25° C./60% RH, 4 weeks) of the same compound?
A: 0.28 % w/w

Q: What about the “Unknown Impurity RRT 1.3” value (25° C./60% RH, 4 weeks) of the same compound?
A: 0.26 % w/w

Q: And the “Unknown Impurity RRT 1.39” value (25° C./60% RH, 4 weeks)?
A: 0.07 % w/w

Q: And the “Unknown Impurity RRT 1.41” value (25° C./60% RH, 4 weeks)?
A: 0.01 % w/w

Q: What about the “Unknown Impurity RRT 1.46” value (25° C./60% RH, 4 weeks) of the same compound?
A: 0.09 % w/w

Q: And the “Unknown Impurity RRT 1.72” value (25° C./60% RH, 4 weeks)?
A: 0.05 % w/w

Q: What about the “Unknown Impurity RRT 2.3” value (25° C./60% RH, 4 weeks) of the same compound?
A: 0.05 % w/w

Q: What about the “Unknown Impurity RRT 2.59” value (25° C./60% RH, 4 weeks) of the same compound?
A: 0.04 % w/w

Q: And the “Unknown Impurity RRT 2.79” value (25° C./60% RH, 4 weeks)?
A: 0.03 % w/w

Q: And the “3L1O Purity” value (25° C./60% RH, 4 weeks)?
A: 98.66 % Area

Q: And the “Total Impurities” value (25° C./60% RH, 4 weeks)?
A: 1.34 % Area

Q: And the “Unknown Impurity RRT 0.24” value (25° C./60% RH, 8 Weeks)?
A: 0.04 % w/w

Q: What about the “Unknown Impurity RRT 0.58” value (25° C./60% RH, 8 Weeks) of the same compound?
A: 0.07 % w/w

Q: And the “Unknown Impurity RRT 0.59” value (25° C./60% RH, 8 Weeks)?
A: 0.05 % w/w

Q: What about the “Unknown Impurity RRT 0.62” value (25° C./60% RH, 8 Weeks) of the same compound?
A: 0.06 % w/w

Q: What about the “Unknown Impurity RRT 0.87” value (25° C./60% RH, 8 Weeks) of the same compound?
A: 0.15 % w/w

Q: And the “Unknown Impurity RRT 0.89” value (25° C./60% RH, 8 Weeks)?
A: 0.02 % w/w

Q: And the “Unknown Impurity RRT 1.03” value (25° C./60% RH, 8 Weeks)?
A: 0.08 % w/w

Q: What about the “Unknown Impurity RRT 1.11” value (25° C./60% RH, 8 Weeks) of the same compound?
A: 0.05 % w/w

Q: What about the “Unknown Impurity RRT 1.27” value (25° C./60% RH, 8 Weeks) of the same compound?
A: 0.41 % w/w

Q: What about the “Unknown Impurity RRT 1.3” value (25° C./60% RH, 8 Weeks) of the same compound?
A: 0.23 % w/w

Q: And the “Unknown Impurity RRT 1.39” value (25° C./60% RH, 8 Weeks)?
A: 0.07 % w/w

Q: What about the “Unknown Impurity RRT 1.41” value (25° C./60% RH, 8 Weeks) of the same compound?
A: 0.01 % w/w

Q: And the “Unknown Impurity RRT 1.46” value (25° C./60% RH, 8 Weeks)?
A: 0.09 % w/w

Q: What about the “Unknown Impurity RRT 1.73” value (25° C./60% RH, 8 Weeks) of the same compound?
A: 0.06 % w/w

Q: What about the “Unknown Impurity RRT 2.31” value (25° C./60% RH, 8 Weeks) of the same compound?
A: 0.07 % w/w

Q: And the “Unknown Impurity RRT 2.6” value (25° C./60% RH, 8 Weeks)?
A: 0.05 % w/w

Q: What about the “Unknown Impurity RRT 2.8” value (25° C./60% RH, 8 Weeks) of the same compound?
A: 0.03 % w/w

Q: What about the “3L1O Purity” value (25° C./60% RH, 8 Weeks) of the same compound?
A: 98.47 % Area

Q: What about the “Total Impurities” value (25° C./60% RH, 8 Weeks) of the same compound?
A: 1.53 % Area

Q: What about the “Unknown Impurity RRT 0.24” value (40° C./75% RH, 2 Weeks) of the same compound?
A: 0.06 % w/w

Q: And the “Unknown Impurity RRT 0.58” value (40° C./75% RH, 2 Weeks)?
A: 0.07 % w/w

Q: And the “Unknown Impurity RRT 0.59” value (40° C./75% RH, 2 Weeks)?
A: 0.06 % w/w

Q: What about the “Unknown Impurity RRT 0.62” value (40° C./75% RH, 2 Weeks) of the same compound?
A: 0.06 % w/w

Q: What about the “Unknown Impurity RRT 0.81” value (40° C./75% RH, 2 Weeks) of the same compound?
A: 0.02 % w/w

Q: And the “Unknown Impurity RRT 0.87” value (40° C./75% RH, 2 Weeks)?
A: 0.13 % w/w

Q: What about the “Unknown Impurity RRT 0.89” value (40° C./75% RH, 2 Weeks) of the same compound?
A: 0.07 % w/w

Q: What about the “Unknown Impurity RRT 1.02” value (40° C./75% RH, 2 Weeks) of the same compound?
A: 0.07 % w/w

Q: What about the “Unknown Impurity RRT 1.11” value (40° C./75% RH, 2 Weeks) of the same compound?
A: 0.06 % w/w
